Laboratory results taken from patent US20250188113A1, “HIGH PURITY NON-ANIMAL DERIVED TUDCA” (SANDHILL ONE, LLC, priority 2021, published 2025).

Legend:
[1] = DVS mass change (moisture sorption); type: physicochemical
[2] = Crystallinity of Pattern L upon drying (XRPD); type: physicochemical; conditions: dried in a 50° C. oven under −29.5 in Hg for 3 h
Procedure: Pattern L was prepared by the slurry method. In this experiment, 205.4 mg of solid commercial-grade plant derived TUDCA was mixed with 2.2 mL of IPAc:MeOH (7.3:2.9 vol.) in a 4 mL vial at 50° C. The mixture was sonicated for 1 h and stirred for 15 min at 400 rpm, after which it was filtered and analyzed by XRPD. […] As this pattern was a possible hydrate, it was placed in a humidity chamber at 55% RH to see if the crystallinity would increase. The yield was 114.6 mg […].

Row | Compound | DVS mass change 5-95% RH (wt. %) [1] | also measured
1 | CC(C)(C)N.C[C@H](CCC(=O)O)[C@H]1CC[C@H]2[C@@H]3C(=O)C[C@@H]4CC(=O)CC[C@]4(C)[C@H]3CC[C@]12C [tert-Butylamine salt, tert-butylamine salt of 3,7-DKCA] | 10.89 wt. % | 
2 | CC(CCC(=O)NCCS(=O)(=O)O)C1CCC2C3C(O)CC4CC(O)CCC4(C)C3CCC12C.N=C(N)NCCCC(N)C(=O)O [Pattern 1-A (L-arginine), L-arginine TUDCA] |  | DVS mass change 2-80% RH (wt. %) ([1]; 2-80% RH): 2.91 wt. %
3 | CC(C)NC(C)C.C[C@H](CCC(=O)O)[C@H]1CC[C@H]2[C@@H]3C(=O)C[C@@H]4CC(=O)CC[C@]4(C)[C@H]3CC[C@]12C [Diisopropylamine salt, diisopropylamine salt of 3,7-DKCA] | 2.53 wt. % | 
4 | C[C@H](CCC(=O)O)[C@H]1CC[C@H]2[C@@H]3C(=O)C[C@@H]4CC(=O)CC[C@]4(C)[C@H]3CC[C@]12C.NCCN [Ethylenediamine salt, ethylenediamine salt of 3,7-DKCA] | 19.60 wt. % | 
5 | C[C@H](CCC(=O)NCCS(=O)(=O)O)[C@H]1CC[C@H]2[C@@H]3[C@@H](O)C[C@@H]4C[C@H](O)CC[C@]4(C)[C@H]3CC[C@]12C [Pattern L, Tauroursodeoxycholic acid] |  | Crystallinity upon drying [2]: decrease
6 | C[C@H](CCC(=O)NCCS(=O)(=O)O)[C@H]1CC[C@H]2[C@@H]3[C@@H](O)C[C@@H]4C[C@H](O)CC[C@]4(C)[C@H]3CC[C@]12C [Pattern A, Tauroursodeoxycholic acid] |  | DVS mass change 2-95% RH (wt. %) ([1]; 2-95% RH): 0.96 wt. %
